This is an account of results in ChEMBL document CHEMBL3627686, “Discovery of the oxazabicyclo[3.3.1]nonane derivatives as potent and orally active GPR119 agonists” (Bioorg Med Chem Lett, 2015).

Data set [1] concerns Mus musculus. Nature of the data set: Decrease in blood glucose level in C57B1/6NCrl mouse at 3 mg/kg, po administered 30 mins prior to oral glucose challenge by glucose tolerance test. Type of data set: functional, organism-based.
For data set [2], the target named is T1, Glucose-dependent insulinotropic receptor (Homo sapiens) (UniProt Q8TDV5).
T1 sequence (whole entry): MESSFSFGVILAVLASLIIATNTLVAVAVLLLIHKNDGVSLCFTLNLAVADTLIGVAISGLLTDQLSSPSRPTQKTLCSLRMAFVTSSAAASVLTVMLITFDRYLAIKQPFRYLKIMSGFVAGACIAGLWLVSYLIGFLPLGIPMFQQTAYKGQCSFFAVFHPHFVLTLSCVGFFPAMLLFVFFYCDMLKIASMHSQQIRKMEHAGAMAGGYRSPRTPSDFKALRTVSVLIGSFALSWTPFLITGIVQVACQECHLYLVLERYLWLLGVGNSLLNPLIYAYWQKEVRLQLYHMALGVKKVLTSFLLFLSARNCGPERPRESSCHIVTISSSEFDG
Nature of the data set: (§1) Agonist activity at human GPR119 expressed in HEK293 cells assessed as cAMP accumulation after 30 mins by fluorescence analysis. The format is functional, cell-based.

Data set [3] concerns the target T2, Glucose-dependent insulinotropic receptor (Mus musculus) (UniProt Q7TQP3).
T2 sequence (whole entry): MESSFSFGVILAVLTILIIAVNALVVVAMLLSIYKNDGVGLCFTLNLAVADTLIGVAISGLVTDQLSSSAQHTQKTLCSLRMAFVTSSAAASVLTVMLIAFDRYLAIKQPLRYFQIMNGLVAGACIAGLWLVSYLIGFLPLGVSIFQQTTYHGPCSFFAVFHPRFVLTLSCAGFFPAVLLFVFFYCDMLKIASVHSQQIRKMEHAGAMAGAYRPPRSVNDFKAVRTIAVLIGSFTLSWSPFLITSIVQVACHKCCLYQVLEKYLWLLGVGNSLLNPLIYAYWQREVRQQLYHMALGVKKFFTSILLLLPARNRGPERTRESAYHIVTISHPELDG
As to the kind of experiment: (§2) Agonist activity at mouse GPR119 expressed in HEK293 cells assessed as cAMP accumulation after 30 mins by fluorescence analysis. The format is functional, cell-based.

Data set [4] can be described thus: AUC (0 to 6 hrs) in Sprague-Dawley rat plasma at 10 mg/kg, po. Set-up: time < 6 hr, dose 10 mg/kg, route oral. Type of data set: ADME, organism-based.
The test system of data set [5] is Mus musculus. As to the kind of experiment: Decrease in blood glucose level in C57B1/6NCrl mouse at 3 mg/kg, po administered 30 mins prior to oral glucose challenge by glucose tolerance test relative to control. Type of data set: functional.
Data set [6] addresses T3, Glucose-dependent insulinotropic receptor (Homo sapiens, UniProt Q8TDV5).
T3 sequence (Q8TDV5 whole entry): T1 sequence (whole entry)
Described as §1. Type of data set: functional, cell-based.

The target of data set [7] is T4, Glucose-dependent insulinotropic receptor (Mus musculus, UniProt Q7TQP3).
T4 sequence (Q7TQP3 whole entry): T2 sequence (whole entry)
The description is as §2. The format is functional, cell-based.

Data set [8] concerns Mus musculus. As to the kind of experiment: Decrease in blood glucose level in C57B1/6NCrl mouse at 0.1 mg/kg, po administered 30 mins prior to oral glucose challenge by glucose tolerance test relative to control. The format is functional.
The test system of data set [9] is Plasma. As to the kind of experiment: Plasma concentration in C57B1/6NCrl mouse at 0.3 mg/kg, po. The format is ADME, organism-based. Particulars: in vivo.
In data set [10] the test system is Plasma. As to the kind of experiment: Plasma concentration in C57B1/6NCrl mouse at 1 mg/kg, po. The format is ADME, organism-based. Particulars: in vivo.
The nature of data set [11]: Solubility of compound at pH 7.4. The format is physicochemical. Particulars: buffer.
In data set [12] the test system is Plasma. Nature of the data set: Plasma concentration in C57B1/6NCrl mouse at 3 mg/kg, po. Type of data set: ADME, organism-based. Particulars: in vivo.
In data set [13] the test system is Plasma. Nature of the data set: Plasma concentration in C57B1/6NCrl mouse at 0.1 mg/kg, po. The format is ADME, organism-based. Conditions: in vivo.
The test system of data set [14] is Mus musculus. As to the kind of experiment: Decrease in blood glucose level in C57B1/6NCrl mouse drug administered 30 mins prior to oral glucose challenge by glucose tolerance test. Type of data set: functional, organism-based.
Data set [15] deals with Plasma. Nature of the data set: Fraction unbound in C57B1/6NCrl mouse plasma at 3 mg/kg, po after 1 hr. Particulars: in vivo. The format is ADME, organism-based.

Values after ≈ are worked out from the molar mass of the structure shown. Active and inactive are the calls of the source. No cut-off for these calls is given here.

Regarding `Cc1c(Nc2ccc(C#N)cc2Cl)ncnc1OC1CC2COCC(C1)N2C(=O)OC(C)(C)C` (stereo in doubt; 15) [listing 1 of 2 here], the outcome in data set [1] was inactive. The %max turned out to be 38% in data set [2] and 57% in data set [3].
In the case of `Cc1c(Nc2ccc(C#N)cc2Cl)ncnc1OC1CC2COCC(C1)N2C(=O)OC(C)(C)C` (stereo in doubt; 14) [listing 1 of 2 here], the %max is 54% in [2] and 34% in [3].
`Cc1c(Oc2ccc(C#N)cc2Cl)ncnc1OC1C2COCC1CN(C(=O)OC1(C)CC1)C2` (configuration not stated) had an AUC(0-t) at 6 h in data set [4] of 1.49 µM·h. The compound also registered an inhibition in vivo at 3 mg/kg in data set [5] of 75%. Also, the figures for the EC50 in data set [6] and in data set [7] were 16 nM and 128 nM, respectively. In addition, the %max in [2] is 78%; in data set [3], 143%.
Regarding `Cc1c(Nc2ccc(C#N)cc2Cl)ncnc1OC1C2COCC1CN(C(=O)OC(C)(C)C)C2` (stereo in doubt; 20) [listing 1 of 2 here], the EC50 in [6] is 20 nM; in data set [7], 140 nM.
Take `CC1(OC(=O)N2CC3COCC(C2)C3Oc2cc(Nc3ccc(C#N)cc3Cl)ncn2)CC1` (configuration not stated): in data set [4], the AUC(0-t) at 6 h was 1.19 µM·h. This compound came in with an inhibition in vivo at 3 mg/kg in [5] of 78%. Besides, the EC50 in data set [6] worked out at 25 nM; in data set [7], 254 nM. For the same compound, the values for the %max in [2] and in [3] were 88% and 105%, respectively.
`Cc1c(Nc2ccc(C#N)cc2Cl)ncnc1OC1CC2COCC(C1)N2S(=O)(=O)C1CC1` (configuration not stated): the EC50 came to 268 nM in data set [6] and 1600 nM in data set [7]. The %max in data set [2] is 64%; in [3], 100%.
`Cc1c(Nc2ccc(C#N)cc2Cl)ncnc1OC1C2COCC1CN(C(=O)OC(C)(C)C)C2` (stereo in doubt; 20) [listing 2 of 2 here]: the %max in data set [2] amounted to 83%; in [3] it was 69%.
On to `Cc1ncccc1Nc1ncnc(OC2C3COCC2CN(C(=O)OC(C)C)C3)c1C` (stereo in doubt; 21) [listing 1 of 2 here], for which the %max in data set [2] was determined as 78%.
For `Cc1ncccc1Nc1ncnc(OC2C3COCC2CN(C(=O)OC(C)C)C3)c1C` (stereo in doubt; 21) [listing 2 of 2 here], the EC50 in data set [6] turned out to be 65 nM.
In the case of `Cc1c(Nc2ccc(C#N)cc2Cl)ncnc1OC1C2COCC1CN(C(=O)OC(C)(C)C)C2` (stereo in doubt; 19) [listing 1 of 2 here], the %max in data set [2] was determined as 65%; in data set [3], 110%.
With `COc1c(Nc2ccc(C#N)cc2Cl)ncnc1OC1C2COCC1CN(C(=O)OC1(C)CC1)C2` (configuration not stated), the AUC(0-t) at 6 h in data set [4] is 8.23 µM·h. This compound yielded an inhibition in vivo at 0.1 mg/kg in [8] of 40%. Further, the concentration was determined as 90 nM in data set [9], 220 nM in data set [10], 350 nM in data set [12] and 20 nM in [13]. This compound also showed a solubility in [11] of 30 µM (≈ 15 µg/mL). Further, in data set [5], the inhibition in vivo at 3 mg/kg is 78%. For the same compound, the results for the EC50 in [6] and in data set [7] were 7 nM and 43 nM, respectively. The results for the %max in [2] and in [3] were 88% and 99%, respectively. Also, the inhibition result in data set [14] is “Dose-dependent effect”.
As for `Cc1c(Nc2ccc(C#N)cc2Cl)ncnc1OC1C2COCC1CN(S(=O)(=O)C1CC1)C2` (stereo in doubt; 18) [listing 1 of 2 here], the EC50 in [6] stood at 1210 nM.
For the compound `Cc1c(Nc2ccc(C#N)cc2Cl)ncnc1OC1CC2COCC(C1)N2C(=O)OC(C)(C)C` (stereo in doubt; 14) [listing 2 of 2 here], the concentration giving a half-maximal response (EC50) came to 114 nM in data set [6] and 280 nM in data set [7].
For `Cc1c(Nc2ccc(C#N)cc2Cl)ncnc1OC1C2COCC1CN(C(=O)OC(C)(C)C)C2` (stereo in doubt; 19) [listing 2 of 2 here], in that order: 7 nM and 28 nM.
As to `Cc1c(Nc2ccc(S(C)(=O)=O)cc2F)ncnc1OC1CC2COCC(C1)N2C(=O)OC1(C)CC1` (configuration not stated), the AUC(0-t) at 6 h in data set [4] was 2.4 µM·h. Besides, the “Cp(f)” value in [15] is reported as 100 nM. In data set [11], this compound yielded a solubility of 3.4 µM (≈ 1.77 µg/mL). The compound further had an inhibition in vivo at 3 mg/kg in [5] of 84%. The EC50 in [6] came out at 70 nM; in [7] it was 511 nM. Besides, the values for the %max in [2] and in data set [3] were 87% and 79%, respectively.
Regarding `Cc1c(Nc2ccc(C#N)cc2Cl)ncnc1OC1C2COCC1CN(S(=O)(=O)C1CC1)C2` (stereo in doubt; 17) [listing 1 of 2 here], the EC50 in data set [6] was found to be 51 nM; in [7] it was 844 nM.
On to `Cc1c(Nc2ccc(C#N)cc2Cl)ncnc1OC1C2COCC1CN(S(=O)(=O)C1CC1)C2` (stereo in doubt; 17) [listing 2 of 2 here], for which the %max is 56% in [2] and 53% in [3].
In [4], `COc1c(Nc2ccc(C#N)cc2F)ncnc1OC1C2COCC1CN(C(=O)OC1(C)CC1)C2` (configuration not stated) had an AUC(0-t) at 6 h of 1.43 µM·h. In [5], the inhibition in vivo at 3 mg/kg came to 78%. In addition, the EC50 in data set [6] amounted to 5 nM; in data set [7], 47 nM. The %max in [2] is 99%; in [3], 116%.
In data set [4], `Cc1c(Nc2ccc(C#N)cc2Cl)ncnc1OC1C2COCC1CN(C(=O)OC1(C)CC1)C2` (configuration not stated) returned an AUC(0-t) at 6 h of 4.98 µM·h. In [15], the “Cp(f)” value is 3 nM. In addition, in data set [11], the concentration in solution (solubility) was 6 µM (≈ 2.9 µg/mL). Also, 3 mg/kg produced 79% inhibition in vivo in data set [5]. Also, the EC50 stood at 4 nM in data set [6] and 33 nM in [7]. Moreover, the %max in data set [2] stood at 74%; in data set [3], 102%.
On to `Cc1c(Nc2ccc(C#N)cc2Cl)ncnc1OC1CC2COCC(C1)N2C(=O)OC(C)(C)C` (stereo in doubt; 15) [listing 2 of 2 here], for which the results for the EC50 in [6] and in [7] were 17 nM and 100 nM, respectively.
`Cc1c(Nc2ccc(S(C)(=O)=O)cc2Cl)ncnc1OC1CC2COCC(C1)N2C(=O)OC(C)(C)C` (configuration not stated): the outcome in [1] was Active. Further, the EC50 in data set [6] is 44 nM; in data set [7], 190 nM. For the same compound, the values for the %max in data set [2] and in data set [3] were 49% and 78%, respectively.
`Cc1c(Nc2ccc(C#N)cc2Cl)ncnc1OC1C2COCC1CN(S(=O)(=O)C1CC1)C2` (stereo in doubt; 18) [listing 2 of 2 here]: in data set [2], the %max is 52%.
Regarding `Cc1ncccc1Nc1ncnc(OC2C3COCC2CN(C(=O)OC(C)C)C3)c1C` (stereo in doubt; 22), in data set [6], the EC50 was above 10000 nM.
